We go through four compounds from US8729017B2 (priority 2011, dated 2014).

Holding throughout (type): cell-based
One assay concerns the target T1, GLP-1 receptor (Homo sapiens, UniProt P43220).
T1 construct: expressed in transfected cells; host or cells: HEK293
Kind of assay: cAMP induction, firefly luciferase reporter assay in HEK293 cells co-transfected with the GLP-1 receptor. To be noted: HEK293 cells, cAMP-responsive luciferase reporter, 5 hours incubation. The protocol:
(§1) The ability of each peptide to induce cAMP was measured in a firefly luciferase-based reporter assay. […] At the end of the incubation, 100 μL of LucLite luminescence substrate reagent (Perkin Elmer, Wellesley, Mass.) were added to each well. […] In some instances, the in vitro agonist activity at the GIP receptor was also tested.
For orientation: In a reporter assay the amount or activity of a reporter protein is the signal.

Another assay addresses T2, GIP receptor (Homo sapiens, UniProt P48546).
T2 construct: expressed in transfected cells; host or cells: HEK293
T2 sequence (P48546 22-466): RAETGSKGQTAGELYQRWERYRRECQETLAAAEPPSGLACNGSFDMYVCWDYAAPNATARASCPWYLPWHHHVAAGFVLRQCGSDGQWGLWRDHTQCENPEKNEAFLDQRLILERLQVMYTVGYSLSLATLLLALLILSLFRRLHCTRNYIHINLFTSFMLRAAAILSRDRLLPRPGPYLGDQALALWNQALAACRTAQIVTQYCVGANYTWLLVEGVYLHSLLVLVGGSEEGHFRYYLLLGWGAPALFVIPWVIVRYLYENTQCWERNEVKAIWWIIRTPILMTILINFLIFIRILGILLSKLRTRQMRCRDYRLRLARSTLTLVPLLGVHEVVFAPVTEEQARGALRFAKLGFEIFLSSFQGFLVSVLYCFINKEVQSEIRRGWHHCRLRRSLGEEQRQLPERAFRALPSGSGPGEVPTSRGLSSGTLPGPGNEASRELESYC
The experiment in a line: in vitro agonist activity at the GIP receptor (cAMP luciferase reporter, HEK293 cells). The note with it: in vitro agonist activity; read-out: EC50 (nM) at GIP receptor. The protocol:
It is understood that a lower EC50 indicates higher activity or potency at the receptor. […] The ability of each peptide to induce cAMP was measured in a firefly luciferase-based reporter assay. […] At the end of the incubation, 100 μL of LucLite luminescence substrate reagent (Perkin Elmer, Wellesley, Mass.) were added to each well. […] In some instances, the in vitro agonist activity at the GIP receptor was also tested.

Another assay deals with T3, glucagon receptor (Homo sapiens, UniProt P47871).
T3 construct: expressed in transfected cells; host or cells: HEK293
T3 sequence (P47871 26-477, species assumed): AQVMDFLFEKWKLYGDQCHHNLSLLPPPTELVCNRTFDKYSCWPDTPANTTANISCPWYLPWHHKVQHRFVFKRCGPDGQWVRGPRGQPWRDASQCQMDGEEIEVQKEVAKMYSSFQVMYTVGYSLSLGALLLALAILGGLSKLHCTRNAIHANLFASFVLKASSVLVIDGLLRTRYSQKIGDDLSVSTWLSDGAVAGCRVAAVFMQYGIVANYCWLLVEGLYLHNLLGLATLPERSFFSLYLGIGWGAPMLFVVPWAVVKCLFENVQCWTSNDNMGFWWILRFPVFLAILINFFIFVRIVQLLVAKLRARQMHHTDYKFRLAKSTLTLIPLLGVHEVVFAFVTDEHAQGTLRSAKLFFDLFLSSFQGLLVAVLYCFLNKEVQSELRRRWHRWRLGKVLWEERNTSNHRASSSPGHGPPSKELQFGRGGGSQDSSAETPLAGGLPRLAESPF
Kind of assay: cAMP induction, firefly luciferase reporter assay in HEK293 cells co-transfected with the glucagon receptor. To be noted: HEK293 cells, cAMP-responsive luciferase reporter, 5 hours incubation. The protocol:
as §1

Molecules are shown by their SMILES. pEC50: −log10 of the molar value. Numbered stars: 1 amine (or outer) side, 2 acyl side, 3 side chain; on linkers, the order of the positions; unused ones are H or OH. Square brackets hold non-standard residues; d marks the D form. Side chains are listed from the residue outwards. Peptide text beside a SMILES is read from it. * marks the point of attachment. γGlu = O=C(O)[C@H](CCC(=O)[*:2])N[*:1]; Palmitoyl = CCCCCCCCCCCCCCCC(=O)*; Aib = CC(C)(N)C(=O)O

What is called pEC50 is the negative decadic logarithm of the EC50, by convention in mol/L. A high value points to a low EC50. What is called EC50 is the concentration that produces a half-maximal response.

T1 sequence (P43220 24-463): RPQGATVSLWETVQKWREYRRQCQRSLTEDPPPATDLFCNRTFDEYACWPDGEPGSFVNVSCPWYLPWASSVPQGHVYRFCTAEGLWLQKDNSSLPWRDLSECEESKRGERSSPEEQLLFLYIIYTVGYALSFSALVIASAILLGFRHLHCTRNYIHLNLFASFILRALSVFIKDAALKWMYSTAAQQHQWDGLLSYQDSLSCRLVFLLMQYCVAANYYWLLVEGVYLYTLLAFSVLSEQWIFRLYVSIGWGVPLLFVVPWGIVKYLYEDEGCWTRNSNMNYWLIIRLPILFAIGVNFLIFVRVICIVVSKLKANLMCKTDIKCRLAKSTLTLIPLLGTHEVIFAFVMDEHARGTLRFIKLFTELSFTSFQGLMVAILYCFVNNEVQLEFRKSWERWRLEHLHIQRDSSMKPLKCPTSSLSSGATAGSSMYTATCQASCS

Consider `CCCCCCCCCCCCCCCC(=O)NCCCC[C@H](NC(=O)[C@H](CC(=O)O)NC(=O)[C@H](CO)NC(=O)[C@@H](NC(=O)[C@H](Cc1ccccc1)NC(=O)[C@@H](NC(=O)CNC(=O)[C@H](CCC(N)=O)NC(=O)C(C)(C)NC(=O)[C@@H](N)Cc1c[nH]cn1)[C@@H](C)O)[C@@H](C)O)C(=O)N[C@@H](CO)C(=O)N[C@@H](CCCCN)C(=O)N[C@@H](Cc1ccc(O)cc1)C(=O)N[C@@H](CC(C)C)C(=O)N[C@@H](CC(=O)O)C(=O)N[C@@H](CO)C(=O)N[C@@H](CCCNC(=N)N)C(=O)N[C@@H](CCCNC(=N)N)C(=O)N[C@@H](C)C(=O)NC(C)(C)C(=O)N[C@@H](CC(=O)O)C(=O)N[C@@H](Cc1ccccc1)C(=O)N[C@H](C(=O)N[C@@H](CCC(N)=O)C(=O)N[C@@H](Cc1c[nH]c2ccccc12)C(=O)N[C@@H](CC(C)C)C(=O)N[C@@H](CCSC)C(=O)N[C@@H](CC(N)=O)C(=O)N[C@H](C(N)=O)[C@@H](C)O)C(C)C` [compound 58] (H-H[Aib]QGTFTSDK(Palmitoyl)SKYLDSRRA[Aib]DFVQWLMNT-NH2), for which the pEC50 on GLP-1 receptor was 10.60; on glucagon receptor it was 10.05. Besides, at GIP receptor, the EC50 worked out at 35.7 nM.
In the same order, the values of `CCCCCCCCCCCCCCCC(=O)NCCCC[C@H](NC(=O)[C@H](CC(=O)O)NC(=O)[C@H](CO)NC(=O)[C@@H](NC(=O)[C@H](Cc1ccccc1)NC(=O)[C@@H](NC(=O)CNC(=O)[C@H](CCC(N)=O)NC(=O)C(C)(C)NC(=O)[C@@H](N)Cc1c[nH]cn1)[C@@H](C)O)[C@@H](C)O)C(=O)N[C@@H](CO)C(=O)N[C@@H](CCCCN)C(=O)N[C@@H](Cc1ccc(O)cc1)C(=O)N[C@@H](CC(C)C)C(=O)N[C@@H](CC(=O)O)C(=O)N[C@@H](CCC(=O)O)C(=O)N[C@@H](CCCNC(=N)N)C(=O)N[C@@H](CCCNC(=N)N)C(=O)N[C@@H](C)C(=O)NC(C)(C)C(=O)N[C@@H](CC(=O)O)C(=O)N[C@@H](Cc1ccccc1)C(=O)N[C@H](C(=O)N[C@@H](CCC(N)=O)C(=O)N[C@@H](Cc1c[nH]c2ccccc12)C(=O)N[C@@H](CC(C)C)C(=O)N[C@@H](CCSC)C(=O)N[C@@H](CC(N)=O)C(=O)N[C@H](C(N)=O)[C@@H](C)O)C(C)C` [compound 59] (H-H[Aib]QGTFTSDK(Palmitoyl)SKYLDERRA[Aib]DFVQWLMNT-NH2) are 11.00, 10.29 and 7.48 nM.
As to `CCCCCCCCCCCCCCCC(=O)N[C@@H](CCC(=O)NCCCC[C@H](NC(=O)[C@H](CC(=O)O)NC(=O)[C@H](CO)NC(=O)[C@@H](NC(=O)[C@H](Cc1ccccc1)NC(=O)[C@@H](NC(=O)CNC(=O)[C@H](CCC(N)=O)NC(=O)C(C)(C)NC(=O)[C@@H](N)Cc1c[nH]cn1)[C@@H](C)O)[C@@H](C)O)C(=O)N[C@@H](CO)C(=O)N[C@@H](CCCCN)C(=O)N[C@@H](Cc1ccc(O)cc1)C(=O)N[C@@H](CC(C)C)C(=O)N[C@@H](CC(=O)O)C(=O)NC(C)(C)C(=O)N[C@@H](CCCNC(=N)N)C(=O)N[C@@H](C)C(=O)N[C@@H](C)C(=O)N[C@@H](CCC(N)=O)C(=O)N[C@@H](CC(=O)O)C(=O)N[C@@H](Cc1ccccc1)C(=O)N[C@H](C(=O)N[C@@H](CCC(N)=O)C(=O)N[C@@H](Cc1c[nH]c2ccccc12)C(=O)N[C@@H](CC(C)C)C(=O)N[C@@H](CCSC)C(=O)N[C@@H](CCCCN)C(=O)N[C@H](C(=O)N[C@@H](CCCCN)C(=O)N[C@H](CCC(=O)O)C(=O)O)[C@@H](C)O)C(C)C)C(=O)O` [compound 60] (H-H[Aib]QGTFTSDK([γGlu-Palmitoyl])SKYLD[Aib]RAAQDFVQWLMKTK[dE]-OH; N-terminus assumed), the pEC50 at GLP-1 receptor is 10.48; at glucagon receptor, 8.34. Besides, at GIP receptor, the EC50 worked out at 147 nM.
With `CCCCCCCCCCCCCCCC(=O)N[C@@H](CCC(=O)N[C@@H](CCC(=O)NCCCC[C@H](NC(=O)[C@H](CC(=O)O)NC(=O)[C@H](CO)NC(=O)[C@@H](NC(=O)[C@H](Cc1ccccc1)NC(=O)[C@@H](NC(=O)CNC(=O)[C@H](CCC(N)=O)NC(=O)C(C)(C)NC(=O)[C@@H](N)Cc1c[nH]cn1)[C@@H](C)O)[C@@H](C)O)C(=O)N[C@@H](CO)C(=O)N[C@@H](CCCCN)C(=O)N[C@@H](Cc1ccc(O)cc1)C(=O)N[C@@H](CC(C)C)C(=O)N[C@@H](CC(=O)O)C(=O)N[C@@H](CCC(=O)O)C(=O)N[C@@H](CCCNC(=N)N)C(=O)N[C@@H](C)C(=O)N[C@@H](C)C(=O)N[C@@H](CCC(N)=O)C(=O)N[C@@H](CC(=O)O)C(=O)N[C@@H](Cc1ccccc1)C(=O)N[C@H](C(=O)N[C@@H](CCC(N)=O)C(=O)N[C@@H](Cc1c[nH]c2ccccc12)C(=O)N[C@@H](CC(C)C)C(=O)N[C@@H](CCSC)C(=O)N[C@@H](CC(=O)O)C(=O)N[C@H](C(N)=O)[C@@H](C)O)C(C)C)C(=O)O)C(=O)O` [compound 61], the pEC50 at GLP-1 receptor was 11.40; on glucagon receptor, 11.05. The EC50 at GIP receptor came to 0.676 nM.
